Counter-ions that a name gives are not always drawn.

In one assay the target is Bcl-2 protein (Homo sapiens (Human), UniProt P10415). In words: Inhibition of Bcl-2 by the fluorescence polarisation technique. The note with it: fluorescence polarisation test; concentration that inhibits fluorescence polarisation by 50%; read-out: IC50 (nM) Bcl-2 FP. Type of assay: binding. As to the method:
The fluorescence polarisation tests were carried out on microplates (384 wells). […] After incubation for 2 hours, the fluorescence polarisation is measured.

Assay [1] deals with RS4;11 leukaemia tumour line. Put plainly: In vitro cytotoxicity (Microculture Tetrazolium Assay, 48 hours). The note with it: Homo sapiens, RS4;11 cells, 48 hours exposure, MTT, concentration that inhibits cell viability by 50%, read-out: IC50 (nM) MTT RS4. The class given is cell-based. As to the method: The cytotoxicity studies were carried out on the RS4;11 leukaemia tumour line.
The cells are distributed onto microplates and exposed to the test compounds for 48 hours.

Bcl-2 protein, sequence (P10415 whole entry): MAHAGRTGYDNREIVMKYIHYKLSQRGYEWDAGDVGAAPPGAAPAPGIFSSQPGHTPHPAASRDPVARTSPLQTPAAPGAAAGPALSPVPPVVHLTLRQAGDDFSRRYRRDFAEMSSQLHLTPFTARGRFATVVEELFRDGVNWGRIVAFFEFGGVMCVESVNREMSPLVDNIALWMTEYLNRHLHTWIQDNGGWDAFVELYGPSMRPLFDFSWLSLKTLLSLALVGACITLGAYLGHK

Consider `O=C(c1cc(-c2cc(Cl)ccc2C(=O)N2Cc3ccccc3C[C@H]2CN2CCOCC2)n2c1CCCC2)N(c1ccc(O)cc1)c1ccc2c(c1)CCC2` [Example 29, 3-{5-Chloro-2-[((3S)-3-(4-morpholinylmethyl)-3,4-dihydro-2(1H)-isoquinolinyl)carbonyl]phenyl}-N-(2,3-dihydro-1H-inden-5-yl)-N-(4-hydroxyphenyl)-5,6,7,8-tetrahydro-1-indolizine carboxamide hydrochloride], for which the IC50 on Bcl-2 protein stood at 35 nM; in assay [1], 85.5 nM.
In the same order, the values of `CC(C)n1ccc2cc(N(C(=O)c3cc(-c4cc5c(cc4C(=O)N4Cc6ccccc6C[C@H]4CN4CCOCC4)OCO5)n4ccccc34)c3ccc(O)cc3)ccc21` [Example 62, N-(4-Hydroxyphenyl)-N-(1-isopropyl-1H-indol-5-yl)-3-{6-[((3S)-3-(4-morpholinylmethyl)-3,4-dihydro-2(1H)-isoquinolinyl)carbonyl]-1,3-benzodioxol-5-yl}-1-indolizine carboxamide hydrochloride] are 22 nM and 19.3 nM.
As to `Cl.[2H]C1([2H])Oc2cc(C(=O)N3Cc4ccccc4C[C@H]3CN3CCOCC3)c(-c3cc(C(=O)N(c4ccc(O)cc4)c4ccc(C)c(F)c4)c4n3CCCC4)cc2O1` [Example 51, N-(3-Fluoro-4-methylphenyl)-N-(4-hydroxyphenyl)-3-{2,2-dideuterio-6-[((3S)-3-(4-morpholinylmethyl)-3,4-dihydro-2(1H)-isoquinolinyl)carbonyl]-1,3-benzodioxol-5-yl}-5,6,7,8-tetrahydro-1-indolizine carboxamide hydrochloride], the results for the IC50 (at Bcl-2 protein; in assay [1]) were 32 nM and 26 nM, respectively.
In the same order, the values of `O=C(c1cc(-c2cc(Cl)ccc2C(=O)N2Cc3ccccc3C[C@H]2CN2CCOCC2)n2c1CCCC2)N(c1ccc(O)cc1)c1cc(F)cc(F)c1` [Example 125, 3-(5-Chloro-2-{[(3S)-3-(morpholin-4-ylmethyl)-3,4-dihydroisoquinolin-2(1H)-yl]carbonyl}phenyl)-N-(3,5-difluorophenyl)-N-(4-hydroxyphenyl)-5,6,7,8-tetrahydroindolizine-1-carboxamide hydrochloride] are 38 nM and 81.8 nM.
The corresponding values for `CS(=O)(=O)N1CCN(C[C@@H]2Cc3ccccc3CN2C(=O)c2cc3c(cc2-c2cc(C(=O)N(c4ccccc4)c4ccc(O)cc4)c4n2CCCC4)OCO3)CC1` [Example 123, N-(4-Hydroxyphenyl)-3-(6-{[(3S)-3-{[4-(methylsulphonyl)piperazin-1-yl]methyl}-3,4-dihydroisoquinolin-2(1H)-yl]carbonyl}-1,3-benzodioxol-5-yl)-N-phenyl-5,6,7,8-tetrahydroindolizine-1-carboxamide hydrochloride] are 22 nM and 92.1 nM.
Consider `CN1CCN(C[C@@H]2Cc3ccccc3CN2C(=O)c2ccc(Cl)cc2-c2cc(C(=O)N(c3ccc(O)cc3)c3ccc4c(ccn4C)c3)c3n2CCCC3)CC1` [Example 30, 3-{5-Chloro-2-[((3S)-3-[(4-methyl-1-piperazinyl)methyl]-3,4-dihydro-2(1H)-isoquinolinyl)carbonyl]phenyl}-N-(4-hydroxyphenyl)-N-(1-methyl-1H-indol-5-yl)-5,6,7,8-tetrahydro-1-indolizine carboxamide bis(hydrochloride)], for which the values for the IC50 (at Bcl-2 protein; in assay [1]) were 13 nM and 8.59 nM, respectively.
With `COc1ccc(C(=O)N2Cc3ccccc3C[C@H]2CN2CCOCC2)c(-c2cc(C(=O)N(c3ccc(O)cc3)c3ccc(C)c(F)c3)c3n2CCCC3)c1` [Example 114, N-(3-Fluoro-4-methylphenyl)-N-(4-hydroxyphenyl)-3-(5-methoxy-2-{[(3S)-3-(morpholin-4-ylmethyl)-3,4-dihydroisoquinolin-2(1H)-yl]carbonyl}phenyl)-5,6,7,8-tetrahydroindolizine-1-carboxamide hydrochloride], the values for the IC50 (at Bcl-2 protein; in assay [1]) were 9 nM and 43.1 nM, respectively.
The corresponding values for `CN1CCc2cc(N(C(=O)c3cc(-c4cc5c(cc4C(=O)N4Cc6ccccc6C[C@H]4CN4CCOCC4)OCO5)n4ccccc34)c3ccc(O)cc3)ccc21` [Example 61, N-(4-Hydroxyphenyl)-N-(1-methyl-2,3-dihydro-1H-indol-5-yl)-3-{6-[((3S)-3-(4-morpholinylmethyl)-3,4-dihydro-2(1H)-isoquinolinyl)carbonyl]-1,3-benzodioxol-5-yl}-1-indolizine carboxamide hydrochloride] are 22 nM and 14.5 nM.
The corresponding values for `Cn1ccc2cc(N(C(=O)c3cc(-c4cc(Cl)ccc4C(=O)N4Cc5ccccc5C[C@H]4CN4CCCOCC4)n4c3CCCC4)c3ccc(O)cc3)ccc21` [Example 46, 3-{5-Chloro-2-[((3S)-3-(1,4-oxazepan-4-ylmethyl)-3,4-dihydro-2(1H)-isoquinolinyl)carbonyl]phenyl}-N-(4-hydroxyphenyl)-N-(1-methyl-1H-indol-5-yl)-5,6,7,8-tetrahydro-1-indolizine carboxamide hydrochloride] are 21 nM and 56.8 nM.
Regarding `O=C(c1cc(-c2cc(Cl)ccc2C(=O)N2Cc3ccccc3C[C@H]2CN2CCOCC2)n2c1CCCC2)N(c1ccc(O)cc1)c1ccc(F)cc1F` [Example 117, 3-(5-Chloro-2-{[(3S)-3-(morpholin-4-ylmethyl)-3,4-dihydroisoquinolin-2(1H)-yl]carbonyl}phenyl)-N-(2,4-difluorophenyl)-N-(4-hydroxyphenyl)-5,6,7,8-tetrahydroindolizine-1-carboxamide hydrochloride], the values for the IC50 (on Bcl-2 protein; in assay [1]) were 15 nM and 194 nM, respectively.
With `Cn1ccc2cc(N(C(=O)c3cc(-c4cc5c(cc4C(=O)N4Cc6ccccc6C[C@H]4CN4CCCOCC4)OCO5)n4c3CCCC4)c3ccc(O)cc3)ccc21` [Example 14, N-(4-Hydroxyphenyl)-N-(1-methyl-1H-indol-5-yl)-3-{6-[((3S)-3-(1,4-oxazepan-4-ylmethyl)-3,4-dihydro-2(1H)-isoquinolinyl)carbonyl]-1,3-benzodioxol-5-yl}-5,6,7,8-tetrahydro-1-indolizine carboxamide hydrochloride], the results for the IC50 (at Bcl-2 protein; in assay [1]) were 16 nM and 10.7 nM, respectively.
As for `O=C(c1cc(-c2cc3c(cc2C(=O)N2Cc4ccccc4C[C@H]2CN2CCN(CC(F)(F)F)CC2)OCO3)n2c1CCCC2)N(c1ccccc1)c1ccc(O)cc1` [Example 127, N-(4-Hydroxyphenyl)-N-phenyl-3-(6-{[(3S)-3-{[4-(2,2,2-trifluoroethyl)-piperazin-1-yl]methyl}-3,4-dihydroisoquinolin-2(1H)-yl]carbonyl}-1,3-benzodioxol-5-yl)-5,6,7,8-tetrahydroindolizine-1-carboxamide hydrochloride], the IC50 at Bcl-2 protein was 26 nM; in assay [1], 129 nM.
The corresponding values for `Cc1ccc(N(C(=O)c2cc(-c3cc(F)ccc3C(=O)N3Cc4ccccc4C[C@H]3CN3CCOCC3)n3c2COCC3)c2ccc(O)cc2)cc1F` [Example 98, N-(3-Fluoro-4-methylphenyl)-6-(5-fluoro-2-{[(3S)-3-(morpholin-4-ylmethyl)-3,4-dihydroisoquinolin-2(1H)-yl]carbonyl}phenyl)-N-(4-hydroxyphenyl)-3,4-dihydro-1H-pyrrolo[2,1-c][1,4]oxazine-8-carboxamide hydrochloride] are 12 nM and 73.5 nM.
The corresponding values for `COCCN1CCN(C[C@@H]2Cc3ccccc3CN2C(=O)c2cc3c(cc2-c2cc(C(=O)N(c4ccccc4)c4ccc(O)cc4)c4n2CCCC4)OCO3)CC1` [Example 105, N-(4-Hydroxyphenyl)-3-(6-{[(3S)-3-{[4-(2-methoxyethyl)piperazin-1-yl]methyl}-3,4-dihydroisoquinolin-2(1H)-yl]carbonyl}-1,3-benzodioxol-5-yl)-N-phenyl-5,6,7,8-tetrahydroindolizine-1-carboxamide bis(hydrochloride)] are 10 nM and 28.9 nM.
In the same order, the values of `Cn1ccc2cc(N(C(=O)c3cc(-c4cc5c(cc4C(=O)N4Cc6ccccc6C[C@H]4CN4CCOCC4)OCO5)n4c3CNCC4)c3ccc(O)cc3)ccc21` [Example 74, N-(4-Hydroxyphenyl)-N-(1-methyl-1H-indol-5-yl)-6-{6-[((3S)-3-(4-morpholinylmethyl)-3,4-dihydro-2(1H)-isoquinolinyl)carbonyl]-1,3-benzodioxol-5-yl}-1,2,3,4-tetrahydropyrrolo[1,2-a]pyrazine-8-carboxamide bis(hydrochloride)] are 24 nM and 241 nM.
Consider `COCCN(C)C[C@@H]1Cc2ccccc2CN1C(=O)c1ccc(Cl)cc1-c1cc(C(=O)N(c2ccc(O)cc2)c2ccc3c(ccn3C)c2)c2n1CCCC2` [Example 108, 3-(5-Chloro-2-{[(3S)-3-{[(2-methoxyethyl)(methyl)amino]methyl}-3,4-dihydroisoquinolin-2(1H)-yl]carbonyl}phenyl)-N-(4-hydroxyphenyl)-N-(1-methyl-1H-indol-5-yl)-5,6,7,8-tetrahydroindolizine-1-carboxamide hydrochloride], for which the IC50 at Bcl-2 protein worked out at 9 nM; in assay [1] it was 36.4 nM.
With `Cn1ncc2cc(N(C(=O)c3cc(-c4cc5c(cc4C(=O)N4Cc6ccccc6C[C@H]4CN4CCOCC4)OCCO5)n4c3CCCC4)c3ccc(O)cc3)ccc21` [Example 39, N-(4-Hydroxyphenyl)-N-(1-methyl-1H-indazol-5-yl)-3-{7-[((3S)-3-(4-morpholinylmethyl)-3,4-dihydro-2(1H)-isoquinolinyl)carbonyl]-2,3-dihydro-1,4-benzodioxin-6-yl}-5,6,7,8-tetrahydro-1-indolizine carboxamide hydrochloride], the IC50 on Bcl-2 protein turned out to be 16 nM; in assay [1] it was 14.1 nM.

By IC50 is commonly meant the concentration that gives 50% inhibition.
